Earlier results, collected in US20140106008A1, “GLYCEROL COMPOSITIONS AND SOLUTIONS” (BIO-ENERGY INGREDIENTS LIMITED, priority 2011, published 2014).

Test system: exposed organisms
Conditions: aquatic toxicity

## OCC(O)CO [Glycerol, propane-1,2,3-triol]
  TLm96 value, concentration that will kill 50% of the exposed organisms in 96 hours: over 1000 mg/litre
